{"source": "patent US6187906A", "about": "“Methods to improve neural outcome” (Aukland Uniservices Limited, priority 1998, dated 2001)", "key": {"IGF-1 receptor": {"target": "IGF-1 receptor (Homo sapiens, UniProt P08069)", "sequence (P08069 31-736 limits assumed)": "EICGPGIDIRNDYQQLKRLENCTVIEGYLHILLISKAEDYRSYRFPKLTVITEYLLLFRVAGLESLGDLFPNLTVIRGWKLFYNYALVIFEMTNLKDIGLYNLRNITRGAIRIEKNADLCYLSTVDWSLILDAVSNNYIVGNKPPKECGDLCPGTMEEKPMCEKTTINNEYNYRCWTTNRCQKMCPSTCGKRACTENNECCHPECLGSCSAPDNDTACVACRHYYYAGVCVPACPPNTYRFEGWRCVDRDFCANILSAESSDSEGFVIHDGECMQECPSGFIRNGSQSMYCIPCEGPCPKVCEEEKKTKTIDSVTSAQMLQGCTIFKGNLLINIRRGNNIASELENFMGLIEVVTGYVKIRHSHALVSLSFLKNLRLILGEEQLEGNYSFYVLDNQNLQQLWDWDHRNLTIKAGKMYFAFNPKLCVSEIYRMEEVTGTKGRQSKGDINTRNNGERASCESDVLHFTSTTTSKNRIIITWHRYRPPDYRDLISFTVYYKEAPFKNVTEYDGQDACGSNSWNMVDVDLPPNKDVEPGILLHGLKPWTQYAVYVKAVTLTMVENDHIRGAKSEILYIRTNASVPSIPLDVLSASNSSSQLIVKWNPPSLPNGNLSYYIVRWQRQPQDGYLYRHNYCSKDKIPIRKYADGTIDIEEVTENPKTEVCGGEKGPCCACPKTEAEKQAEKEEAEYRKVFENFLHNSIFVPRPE", "sequence (P08069 741-1367 partner limits assumed)": "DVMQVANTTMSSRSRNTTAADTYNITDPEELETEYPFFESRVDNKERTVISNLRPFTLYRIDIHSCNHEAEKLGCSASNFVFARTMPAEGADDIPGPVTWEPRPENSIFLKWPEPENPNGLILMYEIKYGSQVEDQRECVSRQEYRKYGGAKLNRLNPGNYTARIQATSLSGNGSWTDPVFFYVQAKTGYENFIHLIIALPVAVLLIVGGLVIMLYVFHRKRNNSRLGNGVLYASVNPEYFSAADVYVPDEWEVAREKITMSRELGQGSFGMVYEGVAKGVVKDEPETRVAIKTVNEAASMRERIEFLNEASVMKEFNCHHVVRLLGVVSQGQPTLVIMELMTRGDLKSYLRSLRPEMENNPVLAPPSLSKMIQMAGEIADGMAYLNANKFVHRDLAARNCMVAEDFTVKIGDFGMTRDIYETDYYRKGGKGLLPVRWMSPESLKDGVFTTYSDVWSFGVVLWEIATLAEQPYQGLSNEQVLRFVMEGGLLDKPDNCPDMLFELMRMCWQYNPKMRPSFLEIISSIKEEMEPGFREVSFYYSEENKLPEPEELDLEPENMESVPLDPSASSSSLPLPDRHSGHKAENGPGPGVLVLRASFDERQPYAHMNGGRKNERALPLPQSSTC", "conditions": "cited from earlier work"}, "substantia nigra neurons": {"system": "substantia nigra neurons", "experiment": "Medial forebrain bundle transection, TH immunopositive cell survival (Experiment 7)", "assay_type": "in vivo, Wistar rats", "conditions": "lesioned side; daily supranigral GPE 0.3 μg for two weeks", "procedure": "Adult male Wistar rats (200-220 g) were anaesthetized with 75 mg/kg Nembutal and positioned in a stereotaxic apparatus. Unilateral transection of the medial forebrain bundle which contains the ascending nigral dopaminergic projection fibers was made 1.3 mm rostral to the rostral tip of the substantia nigra using a retractable wire knife (David Kopf Instruments, Tujunga, Calif.). The knife was lowered into the brain using the following coordinates from the atlas of Paxinos and Watson (1996), Sydney: Academic Press: 3.3 mm posterior to Bregma, 2.4 mm lateral from midline, and 8.5 mm ventral from skull, the blade was extended 2.0 mm toward midline, raised 2.5 mm dorsally, retracted and extended again, and then returned 2.5 mm ventrally. The wire blade was retracted and the knife withdrawn. Next, a 22-gauge metal guide cannula was permanently fixed into place supranigrally at 5.0 mm posterior to Bregma, 2.0 mm lateral to midline, and 6.8 mm ventral to skull. A second set of intact unlesioned rats were cannulated supranigrally at the same coordinates. […]\nImmunopositive cells were counted in the central substantia nigra. […] To reveal percent survival, percent changes were calculated by dividing the ipsilateral value by contralateral value."}, "[1]": {"experiment": "[3H]-GPE quantitative receptor autoradiography in coronal brain sections", "assay_type": "binding, rat", "conditions": "1 hour room temperature, right side neurons absent due to injury, little reaction", "procedure": "A histological experiment to locate GPE binding sites within the rat brain employed quantitative receptor autoradiography to locate [3H]-GPE binding in coronal sections of the brain as previously described in Dragunow et al (1988, Brain Research 462, 252-257). Fresh frozen brain sections were cut on a cryostat and stored at -80 deg C. until use. Sections were then thawed and pre-incubated with 50 mM Tris HCl (pH 7.4) for 10 minutes at room temperature (250 μl per section). Sections were then dried and 250 μl per section of 5×10^5 counts/min^-1 of [3H]-GPE also made up in Tris HCl buffer (50 mM, pH 7.4) was added for 1 hour at room temperature. Sections were then washed two times for one minute each in ice-cold Tris-HCl followed by one rinse for 1 minute in ice-cold distilled water. Sections were then dried overnight at 4 deg C. and apposed to [3H] sensitive film for 2 weeks, and then developed to produce autoradiograms."}, "[2]": {"system": "mesencephalic neurons (dopaminergic)", "experiment": "Dopamine uptake in 6-OHDA treated embryonic mesencephalic cultures (Experiment 8)", "assay_type": "cell-based, Wistar rat", "conditions": "0.01-100 μM GPE, 4 μM 6-OHDA", "method": "Wistar rat ventral mesencephali from E15 (E1=plug) fetuses were dissected, pooled, and gently dissociate by repeated trituration in 3 ml of sterile modified Krebs-Ringer medium (Gibco, Life Technologies Ltd., NZ) supplemented per liter with 50,000 IU penicillin, 50 mg streptomycin, 1.26 g NaHCO3, and 2.2 g glucose. 2 ml of media was added and the suspension allowed to stand for 7 minutes, after which the supernatant was centrifuged for 7 minutes at 350 xg. The pellet was resuspended in serum-containing media: MEM media with 50,000 IU penicillin, 50 mg streptomycin, 1.26 g NaHCO3 and 5% fetal calf serum (Gibco). Cells were seeded at 2.5-4.0×10^5 trypan-excluding viable cells/cm^2 in sterile 24 well plates precoated for two hours with 5 μg/ml poly-L lysine in H2 O. Cultures were allowed to recover for 24 h at 37° C. in a humidified 95% air: 5% CO2 incubator. […]\nCultures were assayed for dopamine uptake using a modified procedure of Prochiantz et al., 1981 (Nature, Vol. 293, No., 5833). […] The wells were then rinsed with 250 μl 1% Triton X-100 and the contents added to the appropriate scintillation vial containing 4 ml of Ready safe scintillation fluid (Beckman, Palo Alto, Calif.). […]"}}, "data": [{"compound": "NCC(=O)N1CCC[C@H]1C(=O)N[C@@H](CCC(=O)O)C(=O)O", "note": "[GPE, gly-pro-glu]", "values": [{"measurement": "binding to the IGF-1 receptor", "setting": "IGF-1 receptor", "value": "does not"}, {"measurement": "percent cell survival of TH immunopositive neurons", "setting": "substantia nigra neurons", "value": "increased"}, {"measurement": "[3H]-GPE binding in hippocampus", "setting": "[1]", "value": "left hippocampus has bound the radioactive material"}, {"measurement": "protection from 6-OHDA toxicity (dopamine uptake)", "setting": "[2]", "value": "protects mesencephalic neurons"}]}]}
